For 21 molecules, inhibition results are on record in US10081624B2, “Heterocyclic compound” (Takeda Pharmaceutical Company Limited, priority 2014, dated 2018).

The test has as its target T1, HDAC6 enzyme (Homo sapiens, UniProt Q9UBN7).
T1 construct: prepared by transducing full length HDAC1 and HDAC6 genes into Sf-9 insect cells; GST; purchased SignalChem; host or cells: Sf-9 insect cells
T1 sequence (Q9UBN7 1-1215): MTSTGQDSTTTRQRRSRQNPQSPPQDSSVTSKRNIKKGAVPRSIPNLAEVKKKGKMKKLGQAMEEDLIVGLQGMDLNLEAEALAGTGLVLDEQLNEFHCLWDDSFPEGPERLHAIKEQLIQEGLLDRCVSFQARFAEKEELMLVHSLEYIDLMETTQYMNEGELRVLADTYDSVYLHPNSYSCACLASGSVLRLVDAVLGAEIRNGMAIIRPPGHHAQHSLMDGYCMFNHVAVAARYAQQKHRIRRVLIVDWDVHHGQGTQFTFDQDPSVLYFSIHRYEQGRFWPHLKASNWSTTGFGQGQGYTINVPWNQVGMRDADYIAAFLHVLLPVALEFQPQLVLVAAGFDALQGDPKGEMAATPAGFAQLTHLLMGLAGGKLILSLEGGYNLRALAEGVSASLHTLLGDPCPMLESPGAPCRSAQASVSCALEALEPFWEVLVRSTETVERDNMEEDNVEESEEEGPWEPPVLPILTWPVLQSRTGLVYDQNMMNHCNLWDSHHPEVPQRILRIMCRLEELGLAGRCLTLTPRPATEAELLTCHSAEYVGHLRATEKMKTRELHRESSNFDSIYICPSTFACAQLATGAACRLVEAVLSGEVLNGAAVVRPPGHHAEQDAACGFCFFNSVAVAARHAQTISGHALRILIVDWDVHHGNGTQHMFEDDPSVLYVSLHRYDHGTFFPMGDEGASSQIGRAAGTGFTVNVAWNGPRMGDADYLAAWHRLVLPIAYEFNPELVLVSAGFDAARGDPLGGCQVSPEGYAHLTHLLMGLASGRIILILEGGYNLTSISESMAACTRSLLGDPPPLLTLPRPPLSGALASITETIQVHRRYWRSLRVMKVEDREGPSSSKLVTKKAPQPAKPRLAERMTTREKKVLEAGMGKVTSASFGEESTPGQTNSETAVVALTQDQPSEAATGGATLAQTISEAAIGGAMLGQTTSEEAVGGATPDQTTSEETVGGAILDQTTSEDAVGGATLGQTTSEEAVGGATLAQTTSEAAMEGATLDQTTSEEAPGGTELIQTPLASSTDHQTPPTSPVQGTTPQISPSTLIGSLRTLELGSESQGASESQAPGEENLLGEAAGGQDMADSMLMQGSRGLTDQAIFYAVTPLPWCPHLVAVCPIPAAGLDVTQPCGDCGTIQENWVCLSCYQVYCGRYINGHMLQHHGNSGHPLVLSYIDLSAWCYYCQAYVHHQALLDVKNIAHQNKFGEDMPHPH
Nature of the test: HDAC6 enzyme inhibitory assay (HDAC-Glo I/II Assay kit). The test is classed as biochemical. As to conditions: 1 μM test compound; read-out: HDAC6 inhibitory rate (%) (1 μM). In a few lines: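 Full-length GST-purified HDAC1 or HDAC6 (Sf-9 expressed) preincubated 60 min at room temperature with compound in Tris-HCl pH 7.5 buffer with glutathione and Tween-20. HDAC-Glo substrate-developer added, 20 min at room temperature, then luminescence read; inhibition relative to no-enzyme wells as 100%.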
`N#Cc1ccc(C(=O)N2CCOCC2CNC(=O)c2ccc(-c3noc(C(F)(F)F)n3)s2)cc1` (stereo not drawn) [Example 219, N-((4-(4-cyanobenzoyl)morpholin-3-yl)methyl)-5-(5-(trifluoromethyl)-1,2,4-oxadiazol-3-yl)thiophene-2-carboxamide]: the inhibition at 1 µM is 90%.

As for `O=C(NCC1COCCN1C(=O)c1ccccc1N1CCOCC1)c1ccc(-c2noc(C(F)(F)F)n2)s1` (stereo not drawn) [Example 220, N-((4-(2-(morpholin-4-yl)benzoyl)morpholin-3-yl)methyl)-5-(5-(trifluoromethyl)-1,2,4-oxadiazol-3-yl)thiophene-2-carboxamide], the inhibition at 1 µM amounted to 94%. Take `O=C(NCC1COCCN1C(=O)c1ccccc1-c1ccccc1)c1ccc(-c2noc(C(F)(F)F)n2)s1` (stereo not drawn) [Example 221, N-((4-(biphenyl-2-ylcarbonyl)morpholin-3-yl)methyl)-5-(5-(trifluoromethyl)-1,2,4-oxadiazol-3-yl)thiophene-2-carboxamide]: the inhibition at 1 µM was found to be 91%. The result for `O=C(NCC1COCCN1C(=O)c1ccc(-c2ccccc2)cc1)c1ccc(-c2noc(C(F)(F)F)n2)s1` (stereo not drawn) [Example 223, N-((4-(biphenyl-4-ylcarbonyl)morpholin-3-yl)methyl)-5-(5-(trifluoromethyl)-1,2,4-oxadiazol-3-yl)thiophene-2-carboxamide] reads 93%. On to `O=C(NCC1COCCN1C(=O)c1ccccn1)c1ccc(-c2noc(C(F)(F)F)n2)s1` (stereo not drawn) [Example 224, N-((4-(pyridin-2-ylcarbonyl)morpholin-3-yl)methyl)-5-(5-(trifluoromethyl)-1,2,4-oxadiazol-3-yl)thiophene-2-carboxamide], for which the inhibition at 1 µM is 92%. The result for `O=C(NCC1COCCN1C(=O)c1cccnc1)c1ccc(-c2noc(C(F)(F)F)n2)s1` (stereo not drawn) [Example 225, N-((4-(pyridin-3-ylcarbonyl)morpholin-3-yl)methyl)-5-(5-(trifluoromethyl)-1,2,4-oxadiazol-3-yl)thiophene-2-carboxamide] reads 92%; that for `O=C(NCC1COCCN1C(=O)c1ccncc1)c1ccc(-c2noc(C(F)(F)F)n2)s1` (stereo not drawn) [Example 226, N-((4-isonicotinoylmorpholin-3-yl)methyl)-5-(5-(trifluoromethyl)-1,2,4-oxadiazol-3-yl)thiophene-2-carboxamide], 95%; that for `Cc1cc(C(=O)N2CCOCC2CNC(=O)c2ccc(-c3noc(C(F)(F)F)n3)s2)ccn1` (stereo not drawn) [Example 227, N-((4-(2-methylisonicotinoyl)morpholin-3-yl)methyl)-5-(5-(trifluoromethyl)-1,2,4-oxadiazol-3-yl)thiophene-2-carboxamide], 91%.

In the case of `Cn1ccnc1C(=O)N1CCOCC1CNC(=O)c1ccc(-c2noc(C(F)(F)F)n2)s1` (stereo not drawn) [Example 228, N-((4-((1-methyl-1H-imidazol-2-yl)carbonyl)morpholin-3-yl)methyl)-5-(5-(trifluoromethyl)-1,2,4-oxadiazol-3-yl)thiophene-2-carboxamide], the inhibition at 1 µM was determined as 77%.

In the case of `Cn1nccc1C(=O)N1CCOCC1CNC(=O)c1ccc(-c2noc(C(F)(F)F)n2)s1` (stereo not drawn) [Example 229, N-((4-((1-methyl-1H-pyrazol-5-yl)carbonyl)morpholin-3-yl)methyl)-5-(5-(trifluoromethyl)-1,2,4-oxadiazol-3-yl)thiophene-2-carboxamide], the inhibition at 1 µM is 97%. The figure for `Cc1cc(C(=O)N2CCOCC2CNC(=O)c2ccc(-c3noc(C(F)(F)F)n3)s2)n(C)n1` (stereo not drawn) [Example 230, N-((4-((1,3-dimethyl-1H-pyrazol-5-yl)carbonyl)morpholin-3-yl)methyl)-5-(5-(trifluoromethyl)-1,2,4-oxadiazol-3-yl)thiophene-2-carboxamide] is 88%; for `Cn1nc(C(F)(F)F)cc1C(=O)N1CCOCC1CNC(=O)c1ccc(-c2noc(C(F)(F)F)n2)s1` (stereo not drawn) [Example 231, N-((4-((1-methyl-3-(trifluoromethyl)-1H-pyrazol-5-yl)carbonyl)morpholin-3-yl)methyl)-5-(5-(trifluoromethyl)-1,2,4-oxadiazol-3-yl)thiophene-2-carboxamide] it is 92%; for `Cn1cc(C(=O)N2CCOCC2CNC(=O)c2ccc(-c3noc(C(F)(F)F)n3)s2)cn1` (stereo not drawn) [Example 233, N-((4-((1-methyl-1H-pyrazol-4-yl)carbonyl)morpholin-3-yl)methyl)-5-(5-(trifluoromethyl)-1,2,4-oxadiazol-3-yl)thiophene-2-carboxamide] it is 78%. Turning to `Cn1cnc(C(=O)N2CCOCC2CNC(=O)c2ccc(-c3noc(C(F)(F)F)n3)s2)c1` (stereo not drawn) [Example 234, N-((4-((1-methyl-1H-imidazol-4-yl)carbonyl)morpholin-3-yl)methyl)-5-(5-(trifluoromethyl)-1,2,4-oxadiazol-3-yl)thiophene-2-carboxamide], the inhibition at 1 µM was determined as 38%. Turning to `Cc1ncsc1C(=O)N1CCOCC1CNC(=O)c1ccc(-c2noc(C(F)(F)F)n2)s1` (stereo not drawn) [Example 238, N-((4-((4-methyl-1,3-thiazol-5-yl)carbonyl)morpholin-3-yl)methyl)-5-(5-(trifluoromethyl)-1,2,4-oxadiazol-3-yl)thiophene-2-carboxamide], the inhibition at 1 µM is 98%. As for `O=C(NCC1COCCN1C(=O)c1ccno1)c1ccc(-c2noc(C(F)(F)F)n2)s1` (stereo not drawn) [Example 239, N-((4-(1,2-oxazol-5-ylcarbonyl)morpholin-3-yl)methyl)-5-(5-(trifluoromethyl)-1,2,4-oxadiazol-3-yl)thiophene-2-carboxamide], the inhibition at 1 µM is 97%. As to `Cc1cc(C(=O)N2CCOCC2CNC(=O)c2ccc(-c3noc(C(F)(F)F)n3)s2)on1` (stereo not drawn) [Example 240, N-((4-((3-methyl-1,2-oxazol-5-yl)carbonyl)morpholin-3-yl)methyl)-5-(5-(trifluoromethyl)-1,2,4-oxadiazol-3-yl)thiophene-2-carboxamide], the inhibition at 1 µM was found to be 89%. The figure for `O=C(NCC1COCCN1C(=O)c1cccs1)c1ccc(-c2noc(C(F)(F)F)n2)s1` (stereo not drawn) [Example 241, N-((4-(2-thienylcarbonyl)morpholin-3-yl)methyl)-5-(5-(trifluoromethyl)-1,2,4-oxadiazol-3-yl)thiophene-2-carboxamide] is 94%; for `Cc1ccc(C(=O)N2CCOCC2CNC(=O)c2ccc(-c3noc(C(F)(F)F)n3)s2)s1` (stereo not drawn) [Example 242, N-((4-((5-methyl-2-thienyl)carbonyl)morpholin-3-yl)methyl)-5-(5-(trifluoromethyl)-1,2,4-oxadiazol-3-yl)thiophene-2-carboxamide] it is 89%. The figure for `Cc1csc(C(=O)N2CCOCC2CNC(=O)c2ccc(-c3noc(C(F)(F)F)n3)s2)c1` (stereo not drawn) [Example 243, N-((4-((4-methyl-2-thienyl)carbonyl)morpholin-3-yl)methyl)-5-(5-(trifluoromethyl)-1,2,4-oxadiazol-3-yl)thiophene-2-carboxamide] is 93%; for `Cc1ccsc1C(=O)N1CCOCC1CNC(=O)c1ccc(-c2noc(C(F)(F)F)n2)s1` (stereo not drawn) [Example 244, N-((4-((3-methyl-2-thienyl)carbonyl)morpholin-3-yl)methyl)-5-(5-(trifluoromethyl)-1,2,4-oxadiazol-3-yl)thiophene-2-carboxamide] it is 96%.
